Source: US10668090B2, “Liver specific delivery-based antiviral prodrug nucleoside cyclophosphate compound and uses thereof” (ZHEJIANG PALO ALTO PHARMACEUTICALS, INC, priority 2016, dated 2020)
Structures can show the parent of a compound that is named as a salt. Where two headings read alike, the source gives them in different places.

Tests used:
[1] = Formation of active molecules by in vitro metabolism with human liver microsomes; assay type: in vitro ADME; conditions: 25 μM, pH 7.4
Description: Human liver microsomes used herein were purchased from In Vitro Technologies (IVT) Inc., Batch No.: SSP X008070, a mixed liver microsome extracted from the liver tissues of 150 donors. The metabolic activity of CYP3A4 in the liver microsomes of this batch was recorded in the product description to be 1.734 nmol/mg/min (a rate of metabolizing testosterone into […]). The test compounds were synthesized by Zhejiang Paloalto Pharmaceutical Technology Co., Ltd., and dissolved in methanol to produce a 25 mM stock solution. The enzymatic reaction was carried out in 100 μL of a reaction solution (100 mM Tris-HCl, 5 mM MgCl2, pH 7.4) at a test compound concentration of 25 μM and a human liver microsome concentration of 2 mg/mL, and NADPH was added to start the reaction (with a final concentration of 2 mM). After the reaction was performed in a constant temperature shaking water bath for 5 minutes, acetonitrile was quickly added to terminate the reaction at 1.5 times the volume of the reaction mixture. The collected samples were centrifuged at a maximum speed of 13,600 rpm for 20 minutes using an Eppendorf table top centrifuge. The supernatant was collected and dried with a nitrogen evaporator, and then redissolved with mobile phase A, which was an aqueous solution containing 5 mM of ammonium acetate and 0.05% formic acid by volume. The resulting solution was subjected to quantitative analysis using LS-MS/MS (Waters, Acquity UPLC HSS T3 column).

[2] = Description: Male SD rats weighing 180-300 g were provided by Shanghai Sippr-BK Laboratory Animals Co., Ltd. Male animals were adapted to the environment for more than 3 days and fasted for 12 hours but without water deprivation at the night before the experiment. PA1010 (compound 4-cis), PA1007 (compound 6-cis), TAF and TDF were respectively dissolved in a normal saline to prepare their corresponding solutions. Before the administration, the animal's body weight was checked whether it met the experimental requirements. 12 rats were selected for grouping, 2 rats in each group, and were intragastrically administered with a drug solution at 30 mg/kg. Rats were euthanized with carbon dioxide gas at 0.5, 1, 3, 6, 12 and 24 h, respectively. Blood samples were collected from the heart and stored in a heparin anticoagulation tube. Then the samples were centrifuged at 4° C. and 6,000 rpm for 5 minutes, and the plasma supernatant was stored in ice. The kidney and liver tissues of the rats were collected and rinsed with normal saline pre-cooled at 4° C., and then stored in ice after water was drained. After the experiment, the samples were stored at −80° C. in a refrigerator.
The kidney and liver tissues were disrupted and mixed thoroughly in normal saline 5 times the volume of the kidney and liver tissues to obtain a tissue homogenate sample. 100 μL of the rat plasma or tissue homogenate sample was mixed uniformly with 100 μL of 10% trichloroacetic acid precipitant containing 50 ng/mL of adefovir (internal standard) and the solvent thereof was prepared by methanol and acetonitrile in a volume ratio of 50:50. The mixture was centrifuged at 4° C. and 6000 rpm for 5 minutes, and all supernatant was treated with a SPE microextraction plate (MCX μElution Plate 30 μm, Waters). Finally, the microextraction plate was eluted with a methanol solution containing 5% ammonia, and 75 μL of the obtained eluent was transferred to a 384-well sample plate for analysis with an injection volume of 1 μL.
LC-MS/MS-AJ (Triple Quad 5500, AB SCIEX) was used for sample analysis. The chromatographic conditions were shown as follows: chromatographic column: Acquity UPLC HSS T3 (2.1×50 mm, 1.8 μm); column temperature: 40° C.; flow rate: 0.5 mL/min; mobile phase A: 0.1% formic acid aqueous solution and mobile phase B: an acetonitrile solution. The mass spectrometry conditions corresponding to the internal standard were shown as follows: electrospray ionization (ESI): positive ion mode; ion pair m/z monitored by multiple reaction monitoring (MRM): 288/176 (PMPA), 274/162 (PMEA); capillary voltage: 3.0 kV; temperature: 500° C.; desolvation gas flow: 1000 L/h; scanning time: 0.025 seconds; and collision energy: 25 V.
Bar charts of the concentration of PMPA in plasma, liver and kidney corresponding to time were respectively plotted. The area (AUC0-t) under the tissue concentration-time curve of PMPA was fitted using the log-linear trapezoidal method in a non-compartmental model of WinNonLin 6.2.1 (Pharsight, CA). The ratios of liver to kidney and liver to plasma of PMPA were obtained by calculating the ratio of their corresponding AUC0-t.

[3] = male, SD, rat, in vivo, po, 30 mg/kg
[4] = rats, intragastric 30 mg/kg, 0.5-24 h, kidney
[5] = rats, intragastric 30 mg/kg, 0.5-24 h
[6] = rats, intragastric 30 mg/kg, 0.5-24 h, plasma

Row | SMILES | Average rate of PMPA production in 5 minutes [1] | Exposure (AUC0-t) of the active molecule PMPA in kidney [2, 4] | Exposure (AUC0-t) of the active molecule PMPA in liver [2, 5] | Exposure (AUC0-t) of the active molecule PMPA in plasma [2, 6] | also measured
1 | C[C@H](Cn1cnc2c(N)ncnc21)OCP1(=O)OCC[C@@H](c2cccc(Cl)c2F)O1 (mixture of isomers) [Compound 1, (2R)-9-{2-[(4S)-4-(3-chloro-2-fluorophenyl)-2-oxo-1,3,2-dioxaphosphorinan-2-yl]methoxypropyl}adenine] | 33.8 pmol/min/mg HLM | – | – | – | –
2 | C[C@H](Cn1cnc2c(N)ncnc21)OCP1(=O)OCC[C@@H](c2cc(F)cc(Cl)c2)O1 (mixture of isomers) [Compound 2, (2R)-9-{2-[(4S)-4-(3-chloro-5-fluorophenyl)-2-oxo-1,3,2-dioxaphosphorinan-2-yl]methoxypropyl}adenine] | 46.8 pmol/min/mg HLM | – | – | – | –
3 | C[C@H](Cn1cnc2c(N)ncnc21)OCP1(=O)OCC[C@@H](c2ccc(F)c(Cl)c2)O1 (mixture of isomers) [Compound 3, (2R)-9-{2-[(4S)-4-(3-chloro-4-fluorophenyl)-2-oxo-1,3,2-dioxaphosphorinan-2-yl]methoxypropyl}adenine] | 22.2 pmol/min/mg HLM | – | – | – | –
4 | C[C@H](Cn1cnc2c(N)ncnc21)OCP1(=O)OCC[C@@H](c2cccc(Cl)c2)O1 (mixture of isomers) [Compound 7, (2R)-9-{2-[(4S)-4-(3-chlorophenyl)-2-oxo-1,3,2-dioxaphosphorinan-2-yl]methoxypropyl}adenine, reference compound] | 27.5 pmol/min/mg HLM | – | – | – | –
5 | C[C@H](Cn1cnc2c(N)ncnc21)OC[P@@]1(=O)OCC[C@@H](c2cc(Cl)ccc2F)O1 [Compound 4-cis, (2R)-9-{2-[(2R, 4S)-4-(5-chloro-2-fluorophenyl)-2-oxo-1,3,2-dioxaphosphorinan-2-yl]methoxypropyl}adenine] | – | – | – | – | exposure level of PMPA in the liver, times that released from TAF ([2]; male, SD, rat, in vivo): 1.5 times; exposure level of PMPA in the liver, times that released from TDF ([2]; male, SD, rat, in vivo): 2.9 times; Liver-kidney Ratio of PMPA AUC0-t [2, 3]: 1.0; Liver-plasma Ratio of PMPA AUC0-t [2, 3]: 51.4; PMPA level in liver tissues compared with TAF and TDF at the corresponding time points ([2]; rat, in vivo): significantly higher; exposure level of PMPA in the kidney compared with TAF and TDF ([2]; rat, in vivo): significantly lower; Exposure (AUC0-t) of the active molecule PMPA in kidney ([2]; rat, in vivo, po, 30 mg/kg): 234298 ng·h/g; Exposure (AUC0-t) of the active molecule PMPA in plasma ([2]; rat, in vivo, po, 30 mg/kg): 4332 ng·h/g
6 | C[C@H](Cn1cnc2c(N)ncnc21)OC[P@@]1(=O)OCC[C@@H](c2cc(F)cc(Cl)c2)O1 [Compound 6-cis, (2R)-9-{2-[(2R, 4S)-4-(3-chloro-5-fluorophenyl)-2-oxo-1,3,2-dioxaphosphorinan-2-yl]methoxypropyl}adenine] | 75.8 pmol/min/mg HLM | 65393 ng·h/g | 76075 ng·h/g | 1272 ng·h/g | exposure level of PMPA in the kidney compared with TAF and TDF ([2]; rats, intragastric 30 mg/kg): significantly lower
7 | CC(C)OC(=O)[C@H](C)N[P@](=O)(CO[C@H](C)Cn1cnc2c(N)ncnc21)Oc1ccccc1 [TAF, tenofovir alafenamide, reference compound] | – | 297233 ng·h/g | 148407 ng·h/g | 4892 ng·h/g | –
8 | CC(C)OC(=O)OCOP(=O)(CO[C@H](C)Cn1cnc2c(N)ncnc21)OCOC(=O)OC(C)C [TDF, tenofovir disoproxil fumarate, reference compound] | – | 319562 ng·h/g | 78050 ng·h/g | 3097 ng·h/g | –
